Common to all, as to type: in vivo
For assay [1], the system named is FVB strain of mice. The assay is described as follows: Mediation of hyperglycemic conditions: blood glucose and body mass in high fat diet mice. The conditions noted are these: 10 mg/kg p.o. daily six days a week, after 4 weeks of treatment. The text has this: Mediation of hyperglycemic conditions—FVB strain of mice were used in this study. In our previous study (unpublished), we noted that the FVB strain provides a broad phenotypic window for most parameters of human diabetic conditions similar to C57B1/6. For instance, there was a noted weight gain and obesity induced with high and intermediate fat diets. A persistent high fat diet induces relatively robust hyperglycemic conditions and inefficient glucose disposal but with little noted effects on metabolic rate. There is little circadian impact and changes in activity patterns with the high fat diet.
Twenty FVB mice (˜12 weeks of age) were randomly separated into two groups (n=10). One group (of ten mice) was fed a high fat diet (ResearchDiets, New Brunswick, N.J., and Cat. #D12492); with the following caloric components: 20 percent protein; 20 percent carbohydrate; and 60 percent fat; 5.24 kcal/gram. Another group was fed with regular rodent chow (Labdiet, Richmond, Ind., product code 5010); 28.7 percent protein, 12.7 percent fat, and 58.6 percent carbohydrate; 3.43 kcal/gram. After seven-weeks, blood glucose levels (and body weight) of the two different groups were examined. […] The group fed on the high fat diet clearly developed a hyperglycemic condition. The difference in body mass was also clearly significant.
Each of the two groups were then further separated into two subgroups (n=5). For the high fat diet group, the separation of the animals from the hyperglycemic/high fat diet group into two sub-groups was normalized based on the blood glucose levels. One group, designated as high fat-D, were treated with a dopamine reuptake inhibitor (3-(phenylpropyl)-sydnonimine-N-phenylcarbamoyl), the other group, designated as high fat-N were treated with vehicle (30% captosol, 1% Tween (Tween® 20, a polyoxyethylene sorbitan esters available from Sigma) and 1% 1N HCl in H2O; hereafter referred to as vehicle). For the normal chow group, the separation was random but similarly designated and separated into drug treated (Normal-D) and vehicle controls (Normal-N). […]

Assay [2] has as its system FVB strain of mice. The assay is described as follows: Home-cage health and behavior. The conditions noted are these: high-fat-diet-drug-treated group, in contrast to the high-fat-diet-vehicle-treated group. The text has this: Home-cage health and behavior—This is not a […] measurement but the behavior pattern that we noticed during the study. All 4 groups of animals were housed in pairs or trios according to stratification of either treated with drug or vehicle. For three of the 4 groups, e.g. Normal Diet-drug-treated, Normal Diet-vehicle-treated, and high-fat-diet-drug-treated, the animals appear to be healthy, were docile to handlers and non-aggressive with each other. However the high-fat-diet-vehicle-treated group started to develop underbelly lesions, bite marks, and aggressive behavior towards littermates. This pattern of behavior became especially noticeable after overnight fasting (in order for fasting blood glucose level). In fact, after the above mentioned second examination (examination of fasting blood glucose level after 4 weeks of drug treatment), one of the mice in the high-fat-diet-vehicle-treated group had to be euthanized due to wounds and lesions. The remainders (of the four mice) were subsequently housed individually. These changes of behavior patterns and or behavior oddities are likely indicative of neurological changes under pre-diabetic or diabetic conditions.

Assay [3] relates to FVB strain of mice. Kind of assay: Mediation of diabetic-induced hypoalgesia (Hot-plate assay). To be noted: for (Mean − Mean0)/Std0 (Wilcoxon rank sums, hot plate latency) / Score Mean (Wilcoxon rank sums, hot plate latency) / Score Sum (Wilcoxon rank sums, hot plate latency): hot plate 48° C. On the procedure: Mediation of diabetic-induced hypoalgesia (Hot-plate assay)—Mice were brought to the testing room and acclimatized for an hour before test. Pain reflexes in response to a thermal stimulus are measured using a Hot Plate Analgesia Meter from Harvard Apparatus. The plate surface was maintained at 48° C. that was measured by a built-in digital thermometer. Mice were placed on the hot plate which is surrounded by a clear acrylic cage with the Start/Stop trigger on the timer. […] For each subject, the test was performed three times with about 30 minute rest between tests. Animals were tested one at a time and were not habituated to the apparatus prior to testing.
In general terms: Thermal pain tests record how soon the animal reacts.

The test system of assay [4] is FVB strain of mice. Kind of assay: Mediation of diabetic hypoalgesia (Tail-flick assay). To be noted: for (Mean − Mean0)/Std0 (Wilcoxon rank sums, tail-flick latency) / Score Mean (Wilcoxon rank sums, tail-flick latency) / Score Sum (Wilcoxon rank sums, tail-flick latency): 5.0 mg/kg p.o. an hour before test. As to the method: Mediation of diabetic hypoalgesia (Tail-flick assay)—Mice were brought to the testing room, acclimatized and administered 3-(phenylpropyl)-sydnonimine-N-phenylcarbamoyl (5.0 mg/kg; p.o.) an hour before test. Pain reflexes in response to a thermal stimulus are measured using a tail-flick analgesic meter with a built in stop-timer from Columbus Instruments. Latencies to respond for the thermal stimulation is recorder. For each subject, the test was performed three times with about 30 minute rests between tests. Animals are tested one at a time and are not habituated to the apparatus prior to testing.

Entries after “also recorded” stand apart in the source; their conditions may differ.

With `CC(Cc1ccccc1)[n+]1cc([N-]C(=O)Nc2ccccc2)on1` (centres unmarked) [3-(phenylpropyl)-sydnonimine-N-phenylcarbamoyl], the “body mass of high fat diet groups compared with Normal Diet groups” value in the assay with FVB strain of mice [1] is “still noticeably higher than the groups on the Normal Diet regardless of the drug exposure”. In the assay on FVB strain of mice [1] (high fat and Normal Diet groups), the “blood glucose levels of drug treated groups compared with respective sham treated groups” value is reported as “lower levels of blood glucose than their respective sham treated groups”. For the same molecule, in the assay with FVB strain of mice [1] (high fat diet, 10 mg/kg), the “blood glucose levels of high fat diet drug treated mice compared with Normal Diet group” value was “indistinguishable from the group of mice fed a Normal Diet; also recorded: no discernable differences”. For the same molecule, the “home-cage health and behavior” value in the assay with FVB strain of mice [2] is “remained healthy, docile and playful with littermates”. Besides, the “thermal responses of high-fat-diet-drug-treated subjects compared with Normal Diet-vehicle-treated (hot plate)” value with FVB strain of mice [3] (FIG. 3) is given as “virtually no difference was observed”. Besides, the “effect on hypoalgesic conditions induced by diabetic conditions (hot plate test)” value in the assay with FVB strain of mice [3] (FIG. 3, high fat diet mice) is “attenuated the hypoalgesic”. In addition, in the assay with FVB strain of mice [3] (High Fat-D group), the “(Mean − Mean0)/Std0 (Wilcoxon rank sums, hot plate latency)” value is reported as −1.528; the “Score Mean (Wilcoxon rank sums, hot plate latency)” value is 6.600; the “Score Sum (Wilcoxon rank sums, hot plate latency)” value was determined as 33.000. In the assay with FVB strain of mice [3] (Normal-D group), the “(Mean − Mean0)/Std0 (Wilcoxon rank sums, hot plate latency)” value was 1.898; the “Score Mean (Wilcoxon rank sums, hot plate latency)” value amounted to 14.200; the “Score Sum (Wilcoxon rank sums, hot plate latency)” value worked out at 71.000. In the assay on FVB strain of mice [4] (FIG. 4), the “thermal responses of high-fat-diet-drug-treated subjects compared with Normal Diet-vehicle-treated (tail-flick)” value is reported as “virtually no difference was observed”. The “effect on hypoalgesic conditions induced by diabetic conditions (tail-flick test)” value in the assay with FVB strain of mice [4] (FIG. 4, high fat diet mice) is “attenuated the hypoalgesic”. Also, in the assay on FVB strain of mice [4] (High Fat-D group), the “(Mean − Mean0)/Std0 (Wilcoxon rank sums, tail-flick latency)” value is recorded as −2.268; the “Score Mean (Wilcoxon rank sums, tail-flick latency)” value worked out at 5.000; the “Score Sum (Wilcoxon rank sums, tail-flick latency)” value was 25.000. Besides, in the assay on FVB strain of mice [4] (Normal-D group), the “(Mean − Mean0)/Std0 (Wilcoxon rank sums, tail-flick latency)” value is recorded as −0.139; the “Score Mean (Wilcoxon rank sums, tail-flick latency)” value stood at 9.600; the “Score Sum (Wilcoxon rank sums, tail-flick latency)” value came to 48.000.

For the origin of these results see US20170056379A1, “METHOD OF USING DOPAMINE REUPTAKE INHIBITORS AND THEIR ANALOGS FOR TREATING DIABETES SYMPTOMS AND DELAYING OR […]-[…]” (CALIPER LIFE SCIENCES, INC., priority 2009, published 2017).
